Several values for one entry are separate records, joined by “and”; a condition that tells them apart may be missing. Equal values may be shown once.
Columns and labels:
[1] = tested on: CHO cell line that expresses an antibody; experiment: Batch experiment with the substances according to the invention (Example 1); assay type: cell-based, Chinese hamster; details: batch mode, substance 0.5-1 g/l, basal medium glucose 4.7 g/l, glutamine […]
Method: Cells were stored in the gas phase of liquid nitrogen. One to two ampoules were thawed in nutrient medium preheated to 37° C. and transferred to spinner bottles, shaking flasks or T-bottles. In the first few days of cultivation the medium was changed, depending on the clone.
Depending on the clone, cells were split either every second day or every third day or after two and three days alternately into new medium, i.e. a portion of the cell suspension was removed from culture and a smaller portion of the cell suspension was reused as inoculum for the next culture. This inoculum was made up with fresh prewarmed nutrient medium. Cells were incubated at 37° C. in an incubator with a CO2 atmosphere. An alternative for incubating cells was cultivation in an incubation chamber at 37° C., in this way cells were held in culture for several passages. A passage means a cultivation time of two to three days. At various points of time, cell suspension was taken from strain maintenance and used as inoculum for experiments. The experiments were carried out in various cultivation systems, for example in spinner bottles, T-bottles, shaking flasks, culture tubes or in controlled bioreactors.
(§1) Feed took place at regular intervals.

[2] = tested on: CHO cell line that expresses an antibody; experiment: Fed-batch experiment with the substances according to the invention (Example 2, Table 2); assay type: cell-based, Chinese hamster; set-up: Viabil.: concentration or dose not given beside the values
Text: as §1

CC(=O)C(=O)[O-].[Na+] [Sodium pyruvate]
Gln ([1]; day 0): 1.53 mM
Glucose ([1]; day 0): 4.69 g/L
Lactate ([1]; day 0): 0 g/L
NH4 ([1]; day 0): 1.22 mM
Specific Glutamin consumption (Gln/VCD) ([1]; day 0): 1.49
Specific ammonia production (NH4/VCD) ([1]; day 0): 1.18
Specific glucose consumption (Gluc/VCD) ([1]; day 0): 4.55
Specific lactate production (Lac/VCD) ([1]; day 0): 0.00
Total Cell Density TCD ([1]; day 0): 1.07 E5/ml
Viabil. ([1]; day 0): 96%
Viable Cell Density (VCD) ([1]; day 0): 1.03 E5/ml
Gln ([1]; day 3): 1.02 mM
Glucose ([1]; day 3): 4.55 g/L
Lactate ([1]; day 3): 0.38 g/L
NH4 ([1]; day 3): 1.72 mM
Specific Glutamin consumption (Gln/VCD) ([1]; day 3): 0.13
Specific ammonia production (NH4/VCD) ([1]; day 3): 0.22
Specific glucose consumption (Gluc/VCD) ([1]; day 3): 0.59
Specific lactate production (Lac/VCD) ([1]; day 3): 0.05
Total Cell Density TCD ([1]; day 3): 7.8 E5/ml
Viabil. ([1]; day 3): 99%
Viable Cell Density (VCD) ([1]; day 3): 7.7 E5/ml
Gln ([1]; day 6): 0.25 mM
Glucose ([1]; day 6): 2.81 g/L
Lactate ([1]; day 6): 1.32 g/L
NH4 ([1]; day 6): 1.91 mM
Specific Glutamin consumption (Gln/VCD) ([1]; day 6): 0.01
Specific ammonia production (NH4/VCD) ([1]; day 6): 0.04
Specific glucose consumption (Gluc/VCD) ([1]; day 6): 0.06
Specific lactate production (Lac/VCD) ([1]; day 6): 0.03
Total Cell Density TCD ([1]; day 6): 45 E5/ml
Viabil. ([1]; day 6): 98%
Viable Cell Density (VCD) ([1]; day 6): 44 E5/ml
Gln ([1]; day 8): 0.38 mM
Glucose ([1]; day 8): 1.79 g/L
Lactate ([1]; day 8): 1.34 g/L
NH4 ([1]; day 8): 2.23 mM
Specific Glutamin consumption (Gln/VCD) ([1]; day 8): 0.02
Specific ammonia production (NH4/VCD) ([1]; day 8): 0.10
Specific glucose consumption (Gluc/VCD) ([1]; day 8): 0.08
Specific lactate production (Lac/VCD) ([1]; day 8): 0.06
Total Cell Density TCD ([1]; day 8): 24.5 E5/ml
Viabil. ([1]; day 8): 88%
Viable Cell Density (VCD) ([1]; day 8): 21.6 E5/ml
Gln ([1]; day 11): 0.49 mM
Glucose ([1]; day 11): 0.63 g/L
Lactate ([1]; day 11): 1.93 g/L
NH4 ([1]; day 11): 3.06 mM
Specific Glutamin consumption (Gln/VCD) ([1]; day 11): 0.05
Specific ammonia production (NH4/VCD) ([1]; day 11): 0.30
Specific glucose consumption (Gluc/VCD) ([1]; day 11): 0.06
Specific lactate production (Lac/VCD) ([1]; day 11): 0.19
Total Cell Density TCD ([1]; day 11): 24.2 E5/ml
Viabil. ([1]; day 11): 43%
Viable Cell Density (VCD) ([1]; day 11): 10.3 E5/ml
Total Cell Density TCD ([2]; day 0, fed-batch): 1.5 E5/ml
Viabil. ([2]; day 0, fed-batch): 91%
Viable Cell Density (VCD) ([2]; day 0, fed-batch): 1.37 E5/ml
Total Cell Density TCD ([2]; day 2, fed-batch): 3.2 E5/ml
Viabil. ([2]; day 2, fed-batch): 97%
Viable Cell Density (VCD) ([2]; day 2, fed-batch): 3.1 E5/ml
Total Cell Density TCD ([2]; day 5, fed-batch): 13.7 E5/ml
Viabil. ([2]; day 5, fed-batch): 99%
Viable Cell Density (VCD) ([2]; day 5, fed-batch): 13.5 E5/ml
Total Cell Density TCD ([2]; day 8, fed-batch): 46 E5/ml
Viabil. ([2]; day 8, fed-batch): 90%
Viable Cell Density (VCD) ([2]; day 8, fed-batch): 41.5 E5/ml

O=C(O)C(O)C(O)C(=O)O (centres unmarked) [Tartaric acid]
Gln ([1]; day 0): 1.53 mM
Glucose ([1]; day 0): 4.69 g/L
Lactate ([1]; day 0): 0 g/L
NH4 ([1]; day 0): 1.22 mM
Specific Glutamin consumption (Gln/VCD) ([1]; day 0): 1.49
Specific ammonia production (NH4/VCD) ([1]; day 0): 1.18
Specific glucose consumption (Gluc/VCD) ([1]; day 0): 4.55
Specific lactate production (Lac/VCD) ([1]; day 0): 0.00
Total Cell Density TCD ([1]; day 0): 1.07 E5/ml
Viabil. ([1]; day 0): 96%
Viable Cell Density (VCD) ([1]; day 0): 1.03 E5/ml
Gln ([1]; day 3): 0.9 mM
Glucose ([1]; day 3): 4.53 g/L
Lactate ([1]; day 3): 0.41 g/L
NH4 ([1]; day 3): 1.84 mM
Specific Glutamin consumption (Gln/VCD) ([1]; day 3): 0.17
Specific ammonia production (NH4/VCD) ([1]; day 3): 0.34
Specific glucose consumption (Gluc/VCD) ([1]; day 3): 0.84
Specific lactate production (Lac/VCD) ([1]; day 3): 0.08
Total Cell Density TCD ([1]; day 3): 5.5 E5/ml
Viabil. ([1]; day 3): 98%
Viable Cell Density (VCD) ([1]; day 3): 5.4 E5/ml
Gln ([1]; day 6): 0.19 mM
Glucose ([1]; day 6): 3.56 g/L
Lactate ([1]; day 6): 0.6 g/L
NH4 ([1]; day 6): 2.89 mM
Specific Glutamin consumption (Gln/VCD) ([1]; day 6): 0.00
Specific ammonia production (NH4/VCD) ([1]; day 6): 0.07
Specific glucose consumption (Gluc/VCD) ([1]; day 6): 0.09
Specific lactate production (Lac/VCD) ([1]; day 6): 0.02
Total Cell Density TCD ([1]; day 6): 41.3 E5/ml
Viabil. ([1]; day 6): 97%
Viable Cell Density (VCD) ([1]; day 6): 40 E5/ml
Gln ([1]; day 8): 0.27 mM
Glucose ([1]; day 8): 2.65 g/L
Lactate ([1]; day 8): 0.64 g/L
NH4 ([1]; day 8): 3.42 mM
Specific Glutamin consumption (Gln/VCD) ([1]; day 8): 0.03
Specific ammonia production (NH4/VCD) ([1]; day 8): 0.33
Specific glucose consumption (Gluc/VCD) ([1]; day 8): 0.25
Specific lactate production (Lac/VCD) ([1]; day 8): 0.06
Total Cell Density TCD ([1]; day 8): 12.1 E5/ml
Viabil. ([1]; day 8): 87%
Viable Cell Density (VCD) ([1]; day 8): 10.5 E5/ml
Gln ([1]; day 11): 0.42 mM
Glucose ([1]; day 11): 1.71 g/L
Lactate ([1]; day 11): 0.79 g/L
NH4 ([1]; day 11): 3.87 mM
Specific Glutamin consumption (Gln/VCD) ([1]; day 11): 0.05
Specific ammonia production (NH4/VCD) ([1]; day 11): 0.44
Specific glucose consumption (Gluc/VCD) ([1]; day 11): 0.20
Specific lactate production (Lac/VCD) ([1]; day 11): 0.09
Total Cell Density TCD ([1]; day 11): 18 E5/ml
Viabil. ([1]; day 11): 48%
Viable Cell Density (VCD) ([1]; day 11): 8.7 E5/ml
Total Cell Density TCD ([2]; day 0, fed-batch): 1.5 E5/ml
Viabil. ([2]; day 0, fed-batch): 91%
Viable Cell Density (VCD) ([2]; day 0, fed-batch): 1.37 E5/ml
Total Cell Density TCD ([2]; day 2, fed-batch): 4 E5/ml and 3.9 E5/ml
Viabil. ([2]; day 2, fed-batch): 98% and 97%
Viable Cell Density (VCD) ([2]; day 2, fed-batch): 3.9 E5/ml and 3.8 E5/ml
Total Cell Density TCD ([2]; day 5, fed-batch): 10.4 E5/ml and 9.6 E5/ml
Viabil. ([2]; day 5, fed-batch): 93% and 95%
Viable Cell Density (VCD) ([2]; day 5, fed-batch): 9.7 E5/ml and 9.1 E5/ml
Total Cell Density TCD ([2]; day 8, fed-batch): 26.6 E5/ml and 27.7 E5/ml
Viabil. ([2]; day 8, fed-batch): 89% and 90%
Viable Cell Density (VCD) ([2]; day 8, fed-batch): 23.7 E5/ml and 25 E5/ml

Source: patent US8426202B2, “Cell culture medium” (Cellca GmbH, priority 2005, dated 2013)
